According to patent publication EP0214101A2, “Use of iron(III) chelators of the type desferrioxamine-B and desferriferrithiocine in the treatment of malaria” (CIBA-GEIGY AG, priority 1985, dated 1987):
Where two headings read alike, the source gives them in different places.

Key:
[1] = system: Plasmodium falciparum T96 Chloroquinresistente Zellinie B; assay: microbe, parasite or virus in culture; assay type: cell-based; conditions: for IC50: Plasmodium falciparum, Erythrocyte, over 2 cycles
From the text: (§1) • a) Durch konventionelles Züchten des Stammes Plasmodium falciparum T96 in einer 2 % (V/V) Suspension von humanen Erythrozyten wird der Grundorganismus-Zellinie A fortgepflanzt, welche eine normale Empfindlichkeit gegenüber Chloroquin aufweist. • b) Zellinie A des obigen Stammes wird unter analogen Standardbedingungen wie unter a) gezüchtet, jedoch mit Zusatz von immer ansteigenden Konzentrationen von Chloroquin, bis eine Chloroquinresistente Zellinie B resultiert, welche weiterhin in Kulturmedien mit einer 500 nM-Konzentration von Chloroquin andauernd normales Wachstum (dieselbe Wachstumsraten wie Zellinie A) aufweist.
(§2) • I. Die Züchtung von Testorganismen erfolgt unter den für Züchtung von Plasmodien üblichen Bedingungen auf einer 2 % Suspension von humanen Erythrozyten, supplementiert mit 50 mg/1 Hypoxanthin und gegebenenfalls unter Zugabe der getesteten Hemmsubstanz in gewünschter Konzentration. Die initiale Parasitämie (= der prozentuelle Anteil der zu Beginn von Plasmodien infizierten Erythrozyten) beträgt 1-2 %. Das Resultat (Hemmwirkung) wird als IC50 ausgewertet, d.h. jene Konzentration des Wirkstoffes, die eine Senkung der finalen Parasitämie um 50 %, d.h. eine 50%ige Hemmung des Wachstums, verursacht. • II. In einer alternativen Versuchsanordnung wird beim Einhalten aller übrigen Bedingungen ohne Zugabe von Hypoxanthin und mit einer initialen Parasitämie von 0,5 % gearbeitet.

[2] = system: Plasmodium falciparum in Kultur an menschlichen Erythrozyten; conditions: in vitro culture; cited from earlier work
[3] = very high doses; cited from earlier work
P. vinckei = conditions: cited from earlier work
[4] = system: Plasmodium falciparum T96 Zellinie A; assay: Growth inhibition of Plasmodium falciparum T96 cell line A (normal chloroquine sensitivity) in culture on human erythrocytes; assay type: cell-based; conditions: Erythrocyte, over 2 cycles
From the text: as §1
as §2, with “In einer alternativen Versuchsanordnung wird beim Einhalten aller übrigen Bedingungen ohne Zugabe von Hypoxanthin und mit einer initialen Parasitämie von 0,5 % gearbeitet.” left out

Bakterien = conditions: cited from earlier work

Row | Compound | Vermehrungsfaktor ([1]; Versuchsanordnung I with 500 nM Chloroquin, within 48 hours) | Wachstum / Abtötung in vitro [2] | Toxikologie [3] | Wachstum des Parasiten (P. vinckei; 0,2 g/kg) | Wachstum des Parasiten (P. vinckei; 1,0 g/kg) | IC50 ([4]; Versuchsanordnung I) | IC50 ([4]; Versuchsanordnung II) | IC50 ([1]; Versuchsanordnung I, with 400 nM Chloroquin added) | IC50 ([1]; Versuchsanordnung I, without Chloroquin in test medium) | IC50 ([1]; Versuchsanordnung II, without Chloroquin in test medium) | Wirksamkeit gegen Chloroquin-resistenten Stamm im Vergleich zu normal empfindlichem Stamm ([1]; comparison of resistant with sensitive strain grown under the same conditions) | antibakterielle Wirksamkeit in vitro (Bakterien)
1 | CCN(CC)CCCC(C)Nc1ccnc2cc(Cl)ccc12 (stereo not drawn) [Chloroquin, 7-Chlor-4-(4-diethylamino-l-methylbutylamino)chinolin] | 7-9 | – | – | – | – | – | – | – | – | – | – | –
2 | CC(=O)N(O)CCCCCNC(=O)CCC(=O)N(O)CCCCCNC(=O)CCC(=O)N(O)CCCCCN [Desferrioxamin B, 6,17,28-Trihydroxy-7,10,18,21,29-pentaoxo-6,11,17,22,28-pentaaza-triacontanylamin] | – | nicht nur in ihrem Wachstum gehemmt, sondern auch getötet | auch in sehr hohen Dosen toxikologisch einwandfrei | das Wachstum des Parasiten deutlich hemmt | ihn vollständig tötet | 17 ± 3 µM | 5 µM | 3 ± 1 µM | 6 ± 1.5 µM | 2 ± 1 µM | um fast eine Grössenordnung wirksamer | gewisse allgemeine antibakterielle Wirksamkeit in vitro
3 | CC1(C(=O)O)CSC(c2ncccc2O)=N1 (stereo not shown) [Desferri-ferrithiocin, 2-(3-Hydroxy-2-pyridyl)-4-methyl-2-thiazolin-4-carbonsäure] | – | – | – | – | – | – | – | – | – | – | – | gewisse allgemeine antibakterielle Wirksamkeit in vitro
